The values that follow come from paper PMC3177992 (Chemical research in toxicology, 2011).

What all share (type): in vitro ADME
The target of series [1] is T1, UGT1A1 (Homo sapiens, UniProt P22309).
T1 sequence (P22309 26-533): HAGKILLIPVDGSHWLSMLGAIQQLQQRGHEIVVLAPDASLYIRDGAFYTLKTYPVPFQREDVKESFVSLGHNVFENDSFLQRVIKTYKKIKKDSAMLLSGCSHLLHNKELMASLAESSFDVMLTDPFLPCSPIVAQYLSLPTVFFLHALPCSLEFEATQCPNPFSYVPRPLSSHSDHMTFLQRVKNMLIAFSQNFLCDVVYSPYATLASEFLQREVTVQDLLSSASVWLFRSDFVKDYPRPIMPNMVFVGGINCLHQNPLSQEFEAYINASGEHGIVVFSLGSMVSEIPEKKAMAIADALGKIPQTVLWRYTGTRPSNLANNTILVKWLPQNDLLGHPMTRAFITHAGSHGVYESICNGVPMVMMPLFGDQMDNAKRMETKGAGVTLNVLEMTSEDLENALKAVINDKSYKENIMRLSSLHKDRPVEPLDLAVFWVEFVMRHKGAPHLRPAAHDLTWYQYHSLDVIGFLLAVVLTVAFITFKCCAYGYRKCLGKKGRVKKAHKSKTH
As to the kind of experiment: Glucuronidation assay, UGT1A1-over-expressing HEK293 cell homogenate.

In series [2] the target is T2, UGT2B7 (Homo sapiens, UniProt P16662).
T2 sequence (P16662 24-529): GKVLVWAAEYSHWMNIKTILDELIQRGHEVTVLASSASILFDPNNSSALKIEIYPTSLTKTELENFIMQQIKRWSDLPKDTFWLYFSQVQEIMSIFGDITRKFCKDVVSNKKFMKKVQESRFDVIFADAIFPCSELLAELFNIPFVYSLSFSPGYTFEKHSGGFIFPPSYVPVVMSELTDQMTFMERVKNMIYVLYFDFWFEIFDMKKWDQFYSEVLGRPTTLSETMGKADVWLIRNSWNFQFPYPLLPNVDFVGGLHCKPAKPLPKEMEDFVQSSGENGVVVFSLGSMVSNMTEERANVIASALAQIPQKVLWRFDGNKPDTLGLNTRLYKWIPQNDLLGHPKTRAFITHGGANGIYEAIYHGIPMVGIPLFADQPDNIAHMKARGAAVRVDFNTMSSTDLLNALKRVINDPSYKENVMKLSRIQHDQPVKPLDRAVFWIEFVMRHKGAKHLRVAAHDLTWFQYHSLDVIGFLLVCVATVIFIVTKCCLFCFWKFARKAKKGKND
As to the kind of experiment: Glucuronidation assay, UGT2B7-over-expressing HEK293 cell homogenate.

Series [3] addresses T3, UGT1A10 (Homo sapiens, UniProt Q9HAW8).
T3 sequence (Q9HAW8 26-530): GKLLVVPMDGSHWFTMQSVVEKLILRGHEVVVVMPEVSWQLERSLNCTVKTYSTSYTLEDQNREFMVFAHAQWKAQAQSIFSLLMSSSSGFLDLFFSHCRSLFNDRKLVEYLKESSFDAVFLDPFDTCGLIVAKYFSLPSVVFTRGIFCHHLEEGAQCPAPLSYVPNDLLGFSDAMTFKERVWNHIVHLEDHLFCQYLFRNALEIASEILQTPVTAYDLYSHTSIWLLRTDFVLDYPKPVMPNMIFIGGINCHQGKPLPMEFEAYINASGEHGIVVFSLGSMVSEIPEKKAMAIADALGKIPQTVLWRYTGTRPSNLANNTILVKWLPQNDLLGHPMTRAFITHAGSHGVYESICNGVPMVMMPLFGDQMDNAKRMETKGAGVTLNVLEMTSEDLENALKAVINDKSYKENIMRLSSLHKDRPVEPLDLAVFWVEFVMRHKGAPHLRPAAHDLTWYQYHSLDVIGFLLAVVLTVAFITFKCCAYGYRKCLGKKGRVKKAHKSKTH
The series is described as follows: Glucuronidation assay, UGT1A10-over-expressing HEK293 cell homogenate.

Series [4] has as its target T4, UGT1A9 (Homo sapiens, UniProt O60656).
T4 sequence (O60656 26-530): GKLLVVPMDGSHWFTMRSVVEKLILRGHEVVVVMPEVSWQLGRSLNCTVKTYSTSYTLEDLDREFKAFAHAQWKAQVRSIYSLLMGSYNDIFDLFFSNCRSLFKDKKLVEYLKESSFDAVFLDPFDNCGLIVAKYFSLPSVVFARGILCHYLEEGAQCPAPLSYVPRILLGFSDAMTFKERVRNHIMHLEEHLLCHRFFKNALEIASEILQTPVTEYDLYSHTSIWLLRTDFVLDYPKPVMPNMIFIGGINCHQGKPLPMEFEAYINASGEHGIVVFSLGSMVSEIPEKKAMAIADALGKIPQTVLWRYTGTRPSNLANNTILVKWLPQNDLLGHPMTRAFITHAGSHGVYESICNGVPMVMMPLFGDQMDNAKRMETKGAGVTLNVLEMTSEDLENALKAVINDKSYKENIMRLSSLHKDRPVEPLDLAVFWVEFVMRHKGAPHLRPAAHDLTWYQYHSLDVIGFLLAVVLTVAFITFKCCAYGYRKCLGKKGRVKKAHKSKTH
As to the kind of experiment: Glucuronidation assay, UGT1A9-over-expressing HEK293 cell homogenate.

Series [5] deals with T5, UGT1A7 (Homo sapiens, UniProt Q9HAW7).
T5 sequence (Q9HAW7 26-530): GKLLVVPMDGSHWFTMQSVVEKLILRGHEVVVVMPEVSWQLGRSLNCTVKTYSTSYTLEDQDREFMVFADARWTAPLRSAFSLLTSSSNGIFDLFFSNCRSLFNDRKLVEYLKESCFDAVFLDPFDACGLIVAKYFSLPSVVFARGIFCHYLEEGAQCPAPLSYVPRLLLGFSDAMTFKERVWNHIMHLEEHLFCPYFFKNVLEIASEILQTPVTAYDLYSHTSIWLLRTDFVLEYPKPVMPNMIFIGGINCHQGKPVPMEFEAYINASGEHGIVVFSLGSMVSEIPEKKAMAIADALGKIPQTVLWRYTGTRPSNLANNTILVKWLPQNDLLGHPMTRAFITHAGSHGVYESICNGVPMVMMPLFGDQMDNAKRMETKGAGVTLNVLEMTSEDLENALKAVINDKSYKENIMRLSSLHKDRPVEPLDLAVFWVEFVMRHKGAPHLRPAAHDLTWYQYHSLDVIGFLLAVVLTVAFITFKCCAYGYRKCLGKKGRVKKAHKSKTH
As to the kind of experiment: Glucuronidation assay, UGT1A7-over-expressing HEK293 cell homogenate.

Series [6] deals with T6, UGT1A8 (Homo sapiens, UniProt Q9HAW9).
T6 sequence (Q9HAW9 26-530): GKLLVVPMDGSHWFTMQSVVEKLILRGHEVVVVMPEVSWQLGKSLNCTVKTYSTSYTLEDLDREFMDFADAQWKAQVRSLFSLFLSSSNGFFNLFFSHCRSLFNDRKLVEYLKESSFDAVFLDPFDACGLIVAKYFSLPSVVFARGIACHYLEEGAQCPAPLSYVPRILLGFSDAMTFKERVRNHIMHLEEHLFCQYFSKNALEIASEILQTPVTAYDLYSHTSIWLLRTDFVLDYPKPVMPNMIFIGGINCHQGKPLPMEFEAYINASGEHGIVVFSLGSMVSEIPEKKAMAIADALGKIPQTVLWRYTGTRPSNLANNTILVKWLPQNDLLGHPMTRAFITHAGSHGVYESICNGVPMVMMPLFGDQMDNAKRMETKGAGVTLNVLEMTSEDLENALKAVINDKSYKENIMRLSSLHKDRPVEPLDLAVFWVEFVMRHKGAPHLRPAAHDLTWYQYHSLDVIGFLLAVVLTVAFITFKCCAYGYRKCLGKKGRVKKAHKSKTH
The series is described as follows: Glucuronidation assay, UGT1A8-over-expressing HEK293 cell homogenate.

[7] abbreviates: glucuronide formation from the respective diol enantiomer.

For the molecule `O=C(O)[C@H]1O[C@@H](O[C@H]2c3cc4ccc5cccc6c7ccccc7c(c3C=C[C@@H]2O)c4c56)[C@H](O)[C@@H](O)[C@@H]1O` (relative stereo) [(+)-DB[a,l]P-11-Gluc, DB[a,l]P-(+)-trans-11-Gluc,12-ol], the Km was 76 ± 21 µM in series [1]; 175 ± 25 µM in series [2]; 33 ± 9.8 µM in series [3]; 0.17 ± 0.01 µM in series [4]; 43 ± 7 µM in series [5]; 194 ± 39 µM in series [6]. The “ratio of (+)-DB[a,l]P-11-Gluc : (+)-DB[a,l]P-12-Gluc : (−)-DB[a,l]P-11-Gluc formation” value in series [1] came out at 52; in series [3] it was 19. Moreover, the kcat/Km in series [1] (setting [7]) turned out to be 102 ± 25 M⁻¹ s⁻¹; in series [2] (setting [7]), 6.33 ± 0.17 M⁻¹ s⁻¹; in series [3] (setting [7]) it was 158 ± 33.3 M⁻¹ s⁻¹; in series [4] (setting [7]), 49670 ± 2430 M⁻¹ s⁻¹; in series [5] (setting [7]), 3.83 ± 1.83 M⁻¹ s⁻¹; in series [6] (setting [7]) it was 13.3 ± 2 M⁻¹ s⁻¹. Moreover, the “fold higher activity (kcat/KM) of UGT1A10 compared to UGTs 1A7 and 1A8” value in series [3] (comparing kcat/KM values) is recorded as 12–72 fold. For the same molecule, the “ratio of (+)-DB[a,l]P-11-Gluc : (−)-DB[a,l]P-11-Gluc formation” value in series [4] came out at 30; in series [5], 67; in series [6] it was 48. The “fold higher activity (kcat/KM) of UGT1A9 than UGT1A1” value in series [4] (comparing kcat/KM values) was “approximately 489 fold”.

Broadly, the Km is the substrate concentration at which the rate is half of its maximum. The kcat/Km is the turnover number divided by the Michaelis constant.
